Results from ChEMBL document CHEMBL5608246, “Membrane-Targeting Amphiphilic Honokiol Derivatives Containing an Oxazole Moiety as Potential Antibacterials against Methicillin-Resistant Staphylococcus aureus” (J Med Chem, 2024).
Values after ≈ are worked out from the molar mass of the structure shown.

Columns and labels:
Staphylococcus aureus [1] = experiment: Antibacterial activity against Staphylococcus aureus ATCC 29213 incubated for 16 to 18 hrs by broth dilution method; format: functional; conditions: time 16-18 hrs
Staphylococcus aureus [2] = experiment: Antibacterial activity against methicillin resistant Staphylococcus aureus N315 incubated for 16 to 18 hrs by broth dilution method; format: functional; conditions: time 16-18 hrs
Staphylococcus aureus [3] = experiment: Antibacterial activity against methicillin resistant Staphylococcus aureus M11 incubated for 16 to 18 hrs by broth dilution method; format: functional; conditions: time 16-18 hrs
Staphylococcus aureus [4] = experiment: Antibacterial activity against methicillin resistant Staphylococcus aureus M12 incubated for 16 to 18 hrs by broth dilution method; format: functional; conditions: time 16-18 hrs
Staphylococcus aureus [5] = experiment: Antibacterial activity against methicillin resistant Staphylococcus aureus M13 incubated for 16 to 18 hrs by broth dilution method; format: functional; conditions: time 16-18 hrs
Staphylococcus aureus [6] = experiment: Antibacterial activity against methicillin resistant Staphylococcus aureus M14 incubated for 16 to 18 hrs by broth dilution method; format: functional; conditions: time 16-18 hrs
Staphylococcus aureus [7] = experiment: Antibacterial activity against methicillin resistant Staphylococcus aureus M16 incubated for 16 to 18 hrs by broth dilution method; format: functional; conditions: time 16-18 hrs
Staphylococcus aureus [8] = experiment: Antibacterial activity against methicillin resistant Staphylococcus aureus M17 incubated for 16 to 18 hrs by broth dilution method; format: functional; conditions: time 16-18 hrs
Staphylococcus aureus [9] = experiment: Antibacterial activity against methicillin resistant Staphylococcus aureus M20 incubated for 16 to 18 hrs by broth dilution method; format: functional; conditions: time 16-18 hrs
Staphylococcus aureus [10] = experiment: Antibacterial activity against methicillin resistant Staphylococcus aureus M21 incubated for 16 to 18 hrs by broth dilution method; format: functional; conditions: time 16-18 hrs
Staphylococcus aureus [11] = experiment: Antibacterial activity against methicillin resistant Staphylococcus aureus M22 incubated for 16 to 18 hrs by broth dilution method; format: functional; conditions: time 16-18 hrs
Staphylococcus aureus [12] = experiment: Antibacterial activity against methicillin resistant Staphylococcus aureus M23 incubated for 16 to 18 hrs by broth dilution method; format: functional; conditions: time 16-18 hrs
Escherichia coli = experiment: Antibacterial activity against Escherichia coli ATCC 25922 incubated for 16 to 18 hrs by broth dilution method; format: functional; conditions: time 16-18 hrs
[13] = Hemolytic activity in sheep RBC incubated for 1 hr; format: toxicity, cell-based, Ovis aries, Erythrocyte; conditions: sheep red blood cells (erythrocytes)
[14] = Selectivity index, ratio of HC50 for sheep RBC to MIC for Staphylococcus aureus ATCC 29213; format: toxicity; conditions: sheep red blood cells, read-out: Selectivity Index

| SMILES | MIC (Staphylococcus aureus [1]) [µg/mL] | MIC (Staphylococcus aureus [2]) [µg/mL] | MIC (Staphylococcus aureus [3]) [µg/mL] | MIC (Staphylococcus aureus [4]) [µg/mL] | MIC (Staphylococcus aureus [5]) [µg/mL] | MIC (Staphylococcus aureus [6]) [µg/mL] | MIC (Staphylococcus aureus [7]) [µg/mL] | MIC (Staphylococcus aureus [8]) [µg/mL] | MIC (Staphylococcus aureus [9]) [µg/mL] | MIC (Staphylococcus aureus [10]) [µg/mL] | MIC (Staphylococcus aureus [11]) [µg/mL] | MIC (Staphylococcus aureus [12]) [µg/mL] | MIC (Escherichia coli) [µg/mL] | HC50 at 1 h [13] [µg/mL] | selectivity ratio [14] |
| --- | --- | --- | --- | --- | --- | --- | --- | --- | --- | --- | --- | --- | --- | --- | --- |
| C=CCc1cc(-c2ccc(OCCC[N+](C)(C)CC(=O)NCCCC)c(CC=C)c2)c2oc(-c3cc(Br)cc(Br)c3)nc2c1.[Br-] | 128 | 128 | 128 | > 128 | > 128 | 128 | 128 | 128 | > 128 | 64 | 128 | 128 | 128 | 205 | 1.6 |
| C=CCc1cc(-c2ccc(OCCC[N+](C)(C)CC(=O)NCCCC)c(CC=C)c2)c2oc(-c3ccc(Cl)c(Cl)c3)nc2c1.[Br-] | 128 | 128 | 64 | 32 | 16 | 32 | 32 | 128 | 32 | 32 | 64 | 64 | > 128 | 87.6 | 0.7 |
| C=CCc1cc(-c2ccc(OCCC[N+](C)(C)CC(=O)NCCCC)c(CC=C)c2)c2oc(-c3ccc(Cl)c(F)c3)nc2c1.[Br-] | 64 | 8 | 8 | 16 | 8 | 4 | 8 | 16 | 8 | 8 | 8 | 8 | 128 | 81 | 1.3 |
| C=CCc1cc(-c2ccc(OCCC[N+](C)(C)CC(=O)NCCCC)c(CC=C)c2)c2oc(-c3ccc(Br)cc3)nc2c1.[Br-] | 64 | 64 | 8 | 16 | 8 | 8 | 8 | 16 | 8 | 8 | 16 | 8 | 128 | > 320 | > 5 |
| C[C@@H](O)[C@H]1C(=O)N2C(C(=O)O)=C(S[C@@H]3CN[C@H](C(=O)N(C)C)C3)[C@H](C)[C@H]12 [MEROPENEM] |  |  |  |  |  |  |  |  |  |  |  |  | 0.063 (≈ 0.164 µM) |  |  |
| C=CCc1cc(-c2ccc(OCCC[N+](C)(C)CC(=O)NCCCC)c(CC=C)c2)c2oc(-c3ccc(OC)cc3)nc2c1.[Br-] | 8 | 4 | 2 | 4 | 4 | 2 | 2 | 4 | 2 | 2 | 2 | 2 | > 128 | 320 | > 40 |
| C=CCc1cc(-c2ccc(OCCC[N+](C)(C)CC(=O)NCCCC)c(CC=C)c2)c2oc(-c3ccc(Br)cc3Br)nc2c1.[Br-] | 128 | 64 | 32 | 16 | 16 | 32 | 16 | 64 | 16 | 16 | 32 | 32 | > 128 | 170 | 1.3 |
| C=CCc1cc(-c2ccc(OCCC[N+](C)(C)CC(=O)NCCCC)c(CC=C)c2)c2oc(-c3ccccc3Br)nc2c1.[Br-] | 4 | 8 | 4 | 4 | 2 | 4 | 2 | 4 | 4 | 4 | 4 | 4 | 128 | > 320 | > 80 |
| C=CCc1cc(-c2ccc(OCCC[N+](C)(C)CC(=O)NCCCC)c(CC=C)c2)c2oc(-c3ccccc3Cl)nc2c1.[Br-] | 16 | 64 | 128 | 64 | 32 | 64 | 32 | 128 | 64 | 128 | 32 | 32 | 128 | > 640 | > 40 |
| C=CCc1ccc(O)c(-c2ccc(O)c(CC=C)c2)c1 [HONOKIOL] | 64 (≈ 240 µM) | 8 (≈ 30 µM) | 16 (≈ 60.1 µM) | 8 (≈ 30 µM) | 16 (≈ 60.1 µM) | 16 (≈ 60.1 µM) | 16 (≈ 60.1 µM) | 16 (≈ 60.1 µM) | 8 (≈ 30 µM) | 16 (≈ 60.1 µM) | 16 (≈ 60.1 µM) | 16 (≈ 60.1 µM) | > 128 | > 80 | > 1.25 |
| C=CCc1cc(-c2ccc(OCCC[N+](C)(C)CC(=O)NCCCC)c(CC=C)c2)c2oc(-c3cccc(Br)c3)nc2c1.[Br-] | 32 | 64 | 8 | 8 | 8 | 8 | 8 | 8 | 8 | 8 | 8 | 8 | > 128 | > 320 | > 10 |
| C=CCc1cc(-c2ccc(OCCC[N+](C)(C)CC(=O)NCCCC)c(CC=C)c2)c2oc(-c3cccc(OC)c3)nc2c1.[Br-] | 32 | 8 | 8 | 16 | 16 | 8 | 8 | 8 | 8 | 8 | 16 | 8 | > 128 | 307 | 9.6 |
| C=CCc1cc(-c2ccc(OCCC[N+](C)(C)CC(=O)NCCCC)c(CC=C)c2)c2oc(-c3ccc(F)cc3Cl)nc2c1.[Br-] | 8 | 8 | 4 | 4 | 4 | 4 | 4 | 4 | 4 | 4 | 4 | 4 | > 128 | 219 | 27.3 |
| C=CCc1cc(-c2ccc(OCCC[N+](C)(C)CC(=O)NCCCC)c(CC=C)c2)c2oc(-c3ccc(C(F)(F)F)cc3)nc2c1.[Br-] | 128 | 128 | 8 | 16 | 8 | 16 | 8 | 32 | 8 | 8 | 32 | 8 | 128 | 59.5 | 0.5 |
| C=CCc1cc(-c2ccc(OCCC[N+](C)(C)CC(=O)NCCCC)c(CC=C)c2)c2oc(-c3ccc(Cl)cc3)nc2c1.[Br-] | 16 | 8 | 4 | 4 | 4 | 8 | 4 | 4 | 8 | 4 | 8 | 4 | > 128 | > 640 | > 40 |
| C=CCc1cc(-c2ccc(OCCC[N+](C)(C)CC(=O)NCCCC)c(CC=C)c2)c2oc(-c3cc(F)c(F)c(F)c3)nc2c1.[Br-] | > 128 | 64 | 32 | 128 | 32 | 32 | 32 | 64 | 64 | 32 | 64 | 32 | > 128 | 64.4 | < 0.5 |
| C=CCc1cc(-c2ccc(OCCC[N+](C)(C)CC(=O)NCCCC)c(CC=C)c2)c2oc(-c3ccc(F)c(Cl)c3)nc2c1.[Br-] | 64 | 16 | 8 | 8 | 8 | 4 | 8 | 32 | 8 | 8 | 16 | 8 | > 128 | > 320 | > 5 |
| C=CCc1cc(-c2ccc(OCCC[N+](C)(C)CC(=O)NCCCC)c(CC=C)c2)c2oc(-c3ccc(Cl)cc3Br)nc2c1.[Br-] | > 128 | > 128 | 128 | > 128 | > 128 | 128 | 128 | > 128 | > 128 | > 128 | 128 | > 128 | > 128 | > 320 |  |
| C=CCc1cc(-c2ccc(OCCC[N+](C)(C)CC(=O)NCCCC)c(CC=C)c2)c2oc(-c3ccc(Cl)cc3F)nc2c1.[Br-] | > 128 | > 128 | > 128 | 128 | > 128 | 64 | 128 | 128 | 128 | 128 | 128 | 128 | 128 | > 640 |  |
